Tests used:
Test in all cases: relative viability (nuclei count vs DMSO), 5 days (fraction); higher = more cells survive
[1] = compound: Cc1cnc(CNC(=O)c2c(=O)c3ccc(N4CCCN(C)CC4)nc3n3c2sc2ccccc23)cn1 [CX-5461] + O=C(c1cc(Cc2n[nH]c(=O)c3ccccc23)ccc1F)N1CCN(C(=O)C2CC2)CC1 [Olaparib] (partner 8 µM)
Method in brief: (§1)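 Medians of duplicate plates are given as relative viability. That measure is the nuclei count in treated wells divided by the count in vehicle wells. Counts were taken on 4× images of lung cancer cell lines in 1536-well plates, 5 days after pin-tool dosing the day after seeding with one drug alone or a fixed anchor-drug dose plus five library-drug doses (not always all listed) in √10 steps.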

[2] = compound: O=C(Nc1cc(C(F)(F)F)cc(C(F)(F)F)c1)c1cc(Cl)ccc1O [IMD-0354] + CS(=O)(=O)N1CCN(Cc2cc3nc(-c4cccc5[nH]ncc45)nc(N4CCOCC4)c3s2)CC1 [Pictilisib] (partner 1 µM)
Method in brief: as §1

[3] = compound: O=C(Nc1cc(C(F)(F)F)cc(C(F)(F)F)c1)c1cc(Cl)ccc1O [IMD-0354] + NC(=O)Nc1cc(-c2cccc(F)c2)sc1C(=O)N[C@H]1CCCNC1 [AZD7762] (partner 0.2 µM)
Method in brief: as §1

[4] = compound: Cc1cnc(CNC(=O)c2c(=O)c3ccc(N4CCCN(C)CC4)nc3n3c2sc2ccccc23)cn1 [CX-5461] + CCNC(=O)c1noc(-c2cc(C(C)C)c(O)cc2O)c1-c1ccc(CN2CCOCC2)cc1 [Luminespib] (partner 0.01 µM)
Method in brief: as §1

Row | Cell Line | relative viability ([1]; first compound 0.01 µM) | relative viability ([1]; first compound 0.03162 µM) | relative viability ([1]; first compound 0.1 µM) | relative viability ([1]; first compound 0.3162 µM) | relative viability ([1]; first compound 1 µM) | relative viability ([2]; first compound 0.04 µM) | relative viability ([2]; first compound 0.1265 µM) | relative viability ([2]; first compound 0.4 µM) | relative viability ([2]; first compound 1.265 µM) | relative viability ([2]; first compound 4 µM) | relative viability ([3]; first compound 0.04 µM) | relative viability ([3]; first compound 0.1265 µM) | relative viability ([3]; first compound 0.4 µM) | relative viability ([3]; first compound 1.265 µM) | relative viability ([3]; first compound 4 µM) | relative viability ([4]; first compound 0.01 µM) | relative viability ([4]; first compound 0.03162 µM) | relative viability ([4]; first compound 0.1 µM) | relative viability ([4]; first compound 1 µM) | relative viability ([4]; first compound 0.3162 µM)
1 | HCC-78 | 0.977 | 0.856 | 0.949 | 0.816 | 0.738 | 0.179 | 0.204 | 0.207 | 0.095 | 0.126 | 0.783 | 0.658 | 0.543 | 0.672 | 0.485 | – | – | – | – | –
2 | IA-LM | 0.838 | 0.83 | 0.807 | 0.753 | 0.444 | – | 0.377 | 0.216 | 0.0793 | 0.112 | – | – | – | – | – | – | – | – | – | –
3 | SK-LU-1 | 0.423 | 0.467 | 0.442 | 0.473 | 0.335 | 0.681 | 0.583 | 0.379 | 0.33 | 0.233 | – | – | – | – | – | 0.22 | 0.185 | 0.204 | 0.166 | –
4 | COR-L23 | 0.36 | 0.338 | 0.299 | 0.3 | 0.185 | 0.636 | 0.646 | 0.371 | 0.131 | 0.211 | – | – | – | – | – | 0.641 | 0.597 | 0.512 | 0.333 | 0.547
5 | NCI-H2023 | 0.445 | 0.354 | – | 0.248 | 0.0686 | 0.301 | 0.255 | 0.202 | 0.0996 | 0.0899 | – | – | – | – | – | 0.675 | 0.318 | – | 0.0698 | 0.314
6 | COR-L 105 | 0.658 | 0.654 | 0.718 | 0.675 | 0.447 | 0.439 | 0.351 | 0.303 | 0.278 | 0.293 | – | – | – | – | – | 0.839 | 0.703 | 0.907 | 0.699 | 0.667
7 | NCI-H520 | 0.309 | 0.315 | 0.261 | 0.277 | 0.184 | 0.372 | 0.287 | 0.195 | 0.17 | 0.117 | – | – | – | – | – | 0.195 | 0.194 | 0.202 | 0.218 | 0.262
8 | SW 1573 | 0.395 | 0.468 | 0.29 | 0.438 | 0.141 | 0.577 | 0.468 | 0.263 | 0.418 | 0.137 | – | – | – | – | – | 0.295 | 0.163 | 0.164 | 0.0965 | 0.187
9 | NCI-H522 | 0.647 | 0.645 | 0.664 | – | 0.664 | – | – | – | – | – | 1.05 | 0.815 | 0.702 | 0.766 | 0.461 | 1.49 | 1.22 | 1.98 | 1.08 | 1.05
10 | NCI-H1299 | 0.979 | 0.982 | 0.973 | 1 | 0.891 | 0.753 | 0.717 | 0.369 | 0.0957 | 0.0657 | – | – | – | – | – | – | – | – | – | –
11 | NCI-H1650 | 0.718 | 0.819 | 0.642 | 0.756 | 0.257 | 0.722 | 0.484 | 0.434 | 0.166 | 0.191 | – | – | – | – | – | 0.181 | 0.161 | 0.211 | 0.193 | 0.215
12 | NCI-H2009 | 0.631 | 0.621 | 0.616 | 0.672 | 0.565 | 1 | 0.844 | 0.618 | 0.114 | 0.0666 | – | – | – | – | – | 1.08 | 1.02 | 0.887 | 0.508 | 0.985
13 | NCI-H1648 | 1.19 | 0.765 | 0.76 | 0.762 | 1.05 | – | – | – | – | – | 0.616 | 0.715 | 0.526 | 0.705 | 0.297 | – | – | – | – | –
14 | NCI-H2342 | 0.488 | 0.398 | 0.44 | 0.391 | 0.447 | – | – | – | – | – | 0.539 | 0.509 | 0.469 | 0.31 | 0.385 | 0.778 | 0.653 | 0.657 | 0.693 | 0.761
15 | SW 900 | 0.785 | 0.872 | – | 0.923 | 1 | – | – | – | – | – | 0.649 | 0.693 | 0.441 | 0.24 | 0.254 | 0.171 | 0.162 | 0.19 | 0.176 | 0.18
16 | HCC-366 | 0.444 | 0.444 | 0.429 | 0.315 | 0.273 | 0.16 | 0.193 | 0.168 | 0.148 | 0.0681 | 0.277 | 0.361 | 0.148 | 0.0408 | 0.048 | – | – | – | – | –
17 | A549 | 0.487 | 0.418 | 0.31 | 0.0579 | 0.0629 | 0.655 | 0.547 | 0.237 | 0.0721 | 0.124 | – | – | – | – | – | – | – | – | – | –
18 | NCI-H661 | 0.832 | 0.754 | 0.662 | 0.602 | 0.534 | 0.416 | 0.418 | 0.34 | 0.264 | 0.252 | – | – | – | – | – | 0.928 | 0.879 | 0.792 | 0.433 | 0.575
19 | NCI-H1563 | – | – | – | – | – | 0.635 | 0.704 | 0.595 | 0.387 | 0.318 | – | – | – | – | – | 0.47 | 0.595 | 0.438 | 0.498 | 0.565
